From patent publication US10028938B2, “Antiviral agents and uses thereof” (Griffith University, priority 2014, dated 2018)
Like-named read-outs stand apart in the source and are kept apart here.

Experiments:
hPIV-1 NI = hPIV-1 NI (Human parainfluenza 1 virus, UniProt P16071); assay: biochemical
Experimental: IC50 values for a number of compounds of the first aspect were determined by standard assay methods previously described in Guillon, P et al, Nature Communications (2014).

hPIV-3 HN [1] = biological target: hPIV-3 HN (Human parainfluenza 3 virus, UniProt P08492); assay type: biochemical, hPIV-3 (strain C-243)
hPIV-3 HN [2] = biological target: T1, hPIV-3 HN (UniProt P08492); assay type: biochemical, hPIV-3 (strain C-243); set-up: rows headed: HI Mean IC50; hPIV-3 HN; 3 independent experiments; fold improvement in HI assay; other: versus 6; hPIV-3 HN HI IC50; other: text; other: text, unit given as M; conditions: read-out: hPIV-3 HN HI IC50
T1 sequence (P08492 1-572): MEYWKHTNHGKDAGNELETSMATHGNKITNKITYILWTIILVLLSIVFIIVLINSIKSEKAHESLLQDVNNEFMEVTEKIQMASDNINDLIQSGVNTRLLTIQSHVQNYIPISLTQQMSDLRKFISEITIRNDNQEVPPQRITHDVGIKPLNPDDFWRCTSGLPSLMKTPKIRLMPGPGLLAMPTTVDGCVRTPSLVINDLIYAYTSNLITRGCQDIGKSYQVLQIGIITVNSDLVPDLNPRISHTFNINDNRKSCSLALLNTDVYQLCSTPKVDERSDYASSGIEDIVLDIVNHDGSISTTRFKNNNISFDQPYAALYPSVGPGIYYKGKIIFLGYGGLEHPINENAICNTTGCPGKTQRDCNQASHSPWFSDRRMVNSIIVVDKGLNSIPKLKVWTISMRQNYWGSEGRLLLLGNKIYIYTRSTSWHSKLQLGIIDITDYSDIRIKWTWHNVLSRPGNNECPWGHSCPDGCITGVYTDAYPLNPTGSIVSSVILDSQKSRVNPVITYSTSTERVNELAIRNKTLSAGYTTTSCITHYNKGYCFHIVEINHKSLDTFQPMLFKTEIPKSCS

[3] = Table 5, read-out: hPIV-3 NI (IC50 values)

hPIV-1 NI, sequence (P16071 whole entry): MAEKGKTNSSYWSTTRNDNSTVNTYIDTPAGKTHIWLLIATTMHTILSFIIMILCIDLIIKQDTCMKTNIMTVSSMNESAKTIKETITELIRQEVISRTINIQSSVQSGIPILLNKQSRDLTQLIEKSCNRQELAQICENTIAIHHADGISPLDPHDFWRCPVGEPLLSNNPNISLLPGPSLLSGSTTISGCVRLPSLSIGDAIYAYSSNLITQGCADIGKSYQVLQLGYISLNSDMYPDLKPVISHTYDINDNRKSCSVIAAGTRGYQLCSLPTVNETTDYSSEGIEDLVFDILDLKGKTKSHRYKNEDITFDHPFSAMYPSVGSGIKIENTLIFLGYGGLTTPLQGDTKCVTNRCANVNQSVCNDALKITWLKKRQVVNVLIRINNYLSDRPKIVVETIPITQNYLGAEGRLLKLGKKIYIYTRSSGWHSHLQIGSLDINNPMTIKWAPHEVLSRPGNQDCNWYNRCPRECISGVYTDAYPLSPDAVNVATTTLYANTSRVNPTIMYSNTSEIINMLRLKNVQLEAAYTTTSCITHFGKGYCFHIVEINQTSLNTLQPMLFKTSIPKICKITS

| SMILES | IC50 (hPIV-1 NI) | IC50 (hPIV-3 HN [1]; [3]) | IC50 (hPIV-3 HN [2]) | IC50 (hPIV-3 HN [1]; text b135, read-out: IC50 values for hPIV-3 HN) |
| --- | --- | --- | --- | --- |
| COc1ccccc1-c1cn([C@H]2C=C(C(=O)O)O[C@@H]([C@H](O)[C@H](O)CO)[C@@H]2NC(C)=O)nn1 [IE832-37, Sodium 5-acetamido-2,6-anhydro-3,4,5-trideoxy-4-(4-(2-methoxyphenyl)-[1,2,3,]triazol-1-yl)-D-glycero-D-galacto-non-2-enonate] | 201 µM | 2.4 µM | – | – |
| CC(=O)N[C@H]1[C@H]([C@H](O)C(O)CO)OC(C(=O)O)=C[C@@H]1n1cc(-c2ccccc2C(F)(F)F)nn1 (stereo partly drawn) [IE1172-83, Sodium 5-acetamido-2,6-anhydro-3,4,5-trideoxy-4-(4-(2-(trifluoromethyl)phenyl)-[1,2,3,]triazol-1-yl)-D-glycero-D-galacto-non-2-enonate] | 73.6 µM | 5.61 µM | – | – |
| COCc1cn(C2C(F)[C@](F)(C(=O)O)OC([C@H](O)[C@H](O)CO)[C@@H]2NC(=O)C(C)C)nn1 (stereo partly drawn) [IE1257-24, 3,4,5-Trideoxy-3-fluoro-5-isobutyramido-4-(4-methoxymethyl-[1,2,3,]triazol-1-yl)-D-erythro-β-L-gluco-non-2-ulopyranosonic fluoride] | 0.36 µM | 8.49 µM | – | – |
| CC(C)Cc1cn([C@H]2C=C(C(=O)O)O[C@@H]([C@H](O)[C@H](O)CO)[C@@H]2NC(=O)C(C)C)nn1 [IE927-67, Sodium 2,6-anhydro-3,4,5-trideoxy-4-(4-isobutyl-[1,2,3,]triazol-1-yl)-5-isobutyramido-D-glycero-D-galacto-non-2-enonate] | 47.7 µM | 114 µM | – | – |
| CCCc1cn([C@H]2C=C(C(=O)O)O[C@@H]([C@H](O)[C@H](O)CO)[C@@H]2NC(C)=O)nn1 [IE832-26, Sodium 5-acetamido-2,6-anhydro-3,4,5-trideoxy-4-(4-propyl-[1,2,3,]triazol-1-yl)-D-glycero-D-galacto-non-2-enonate] | 95.5 µM | 67.7 µM | – | – |
| CC(=O)N[C@H]1[C@H]([C@H](O)[C@H](O)CO)OC(C(=O)O)=C[C@@H]1n1cc(CC(C)C)nn1 [IE832-8, Sodium 5-acetamido-2,6-anhydro-3,4,5-trideoxy-4-(4-isobutyl-[1,2,3,]triazol-1-yl)-D-glycero-D-galacto-non-2-enonate] | 301 µM | 54.4 µM | – | – |
| CC(=O)N[C@H]1[C@H]([C@H](O)[C@H](O)CO)OC(C(=O)O)=C[C@@H]1n1cc2ccccc2c1C#N [IE889-80, Sodium 5-acetamido-2,6-anhydro-4-(1-cyano-2H-isoindol-2-yl)-3,4,5-trideoxy-D-glycero-D-galacto-non-2-enonate] | 16.9 µM | 2.68 µM | – | – |
| COCc1cnnn1[C@H]1C=C(C(=O)O)O[C@@H]([C@H](O)C(O)CO)[C@@H]1NC(C)=O (stereo partly drawn) [IE1172-87, Sodium 5-acetamido-2,6-anhydro-3,4,5-trideoxy-4-(5-methoxymethyl-[1,2,3,]triazol-1-yl)-D-glycero-D-galacto-non-2-enonate] | 92.8 µM | 77.4 µM | – | – |
| CC(=O)N[C@H]1[C@H]([C@H](O)[C@H](O)CO)OC(C(=O)O)=C[C@@H]1n1cc(-c2cccnc2)nn1 [IE832-27, Sodium 5-acetamido-2,6-anhydro-3,4,5-trideoxy-4-(4-(pyridin-3-yl)-[1,2,3,]triazol-1-yl)-D-glycero-D-galacto-non-2-enonate] | 302 µM | 106 µM | – | – |
| CC(=O)N[C@H]1[C@H]([C@H](O)C(O)CO)OC(C(=O)O)=C[C@@H]1n1cc(-c2ccccc2Br)nn1 (stereo partly drawn) [IE1257-84, Sodium 5-acetamido-2,6-anhydro-4-(4-(2-bromophenyl)-[1,2,3,]triazol-1-yl)-3,4,5-trideoxy-D-glycero-D-galacto-non-2-enonate] | 24.9 µM | 2.19 µM | – | – |
| COc1cccc(-c2cn([C@H]3C=C(C(=O)O)O[C@@H]([C@H](O)[C@H](O)CO)[C@@H]3NC(C)=O)nn2)c1 [IE832-20, Sodium 5-acetamido-2,6-anhydro-3,4,5-trideoxy-4-(4-(3-methoxyphenyl)-[1,2,3,]triazol-1-yl)-D-glycero-D-galacto-non-2-enonate] | 193 µM | 6.28 µM | – | – |
| CC(=O)N[C@H]1[C@H]([C@H](O)[C@H](O)CO)OC(C(=O)O)=C[C@@H]1n1cnnn1 [IE832-98, Sodium 5-acetamido-2,6-anhydro-3,4,5-trideoxy-4-(1H-tetrazol-1-yl)-D-glycero-D-galacto-non-2-enonate] | 7.44 µM | 27.4 µM | – | – |
| CC(C)C(=O)N[C@H]1[C@H]([C@H](O)[C@H](O)CO)OC(C(=O)O)=C[C@@H]1n1cnnn1 [IE889-42, Sodium 2,6-anhydro-3,4,5-trideoxy-5-isobutyramido-4-(H-tetrazol-1-yl)-D-glycero-D-galacto-non-2-enonate] | 0.159 µM | 5.11 µM | – | – |
| COc1ccccc1-c1cn([C@H]2C=C(C(=O)O)O[C@@H]([C@H](O)[C@H](O)CO)[C@@H]2NC(=O)C(C)C)nn1 [IE889-34, Sodium 2,6-anhydro-3,4,5-trideoxy-5-isobutyramido-4-(4-(2-methoxyphenyl)-[1,2,3,]triazol-1-yl)-D-glycero-D-galacto-non-2-enonate] | 30.3 µM | 3.23 µM | – | – |
| CC(=O)NC1C(O)C=C(C(=O)O)OC1C(O)C(O)CO (stereo not shown) [Compound 2, Neu5Ac2en, reference compound] | – | – | 1440 µM | – |
| CC(=O)N[C@H]1[C@H]([C@H](O)C(O)CO)OC(C(=O)O)=C[C@@H]1n1cc(-c2ccccc2Cl)nn1 (stereo partly drawn) [IE1172-78, Sodium 5-acetamido-2,6-anhydro-4-(4-(2-chlorophenyl)-[1,2,3,]triazol-1-yl)-3,4,5-trideoxy-D-glycero-D-galacto-non-2-enonate] | 75.2 µM | 2.47 µM | – | – |
| CC(=O)N[C@H]1[C@H]([C@H](O)C(O)CO)OC(C(=O)O)=C[C@@H]1n1nnc(-c2ccccc2)c1-c1ccccc1 (stereo partly drawn) [IE1172-102, Sodium 5-acetamido-2,6-anhydro-3,4,5-trideoxy-4-(4,5-diphenyl-[1,2,3,]triazol-1-yl)-D-glycero-D-galacto-non-2-enonate] | 793 µM | > 1000 µM | – | – |
| CC(=O)N[C@H]1[C@H]([C@H](O)[C@H](O)CO)OC(C(=O)O)=C[C@@H]1n1cc(-c2ccc(CO)cc2)nn1 [IE832-12, Sodium 5-acetamido-2,6-anhydro-3,4,5-trideoxy-4-(4-(4-hydroxymethylphenyl)-[1,2,3,]triazol-1-yl)-D-glycero-D-galacto-non-2-enonate] | 215 µM | 51.9 µM | – | – |
| COc1ccc(-c2cn([C@H]3C=C(C(=O)O)O[C@@H]([C@H](O)[C@H](O)CO)[C@@H]3NC(C)=O)nn2)cc1 [IE832-31, Sodium 5-acetamido-2,6-anhydro-3,4,5-trideoxy-4-(4-(4-methoxyphenyl)-[1,2,3,]triazol-1-yl)-D-glycero-D-galacto-non-2-enonate] | 303 µM | 22.9 µM | – | – |
| N#Cc1c2ccccc2cn1[C@H]1C=C(C(=O)O)O[C@@H]([C@H](O)[C@H](O)CO)[C@@H]1NC(=O)C(F)(F)F [IE927-99, Sodium 2,6-anhydro-4-(1-cyano-2H-isoindol-2-yl)-3,4,5-trideoxy-5-(2,2,2-trifluoroacetamido)-D-glycero-D-galacto-non-2-enonate] | 3.09 µM | 0.268 µM | – | 0.27 µM |
| CC(=O)N[C@H]1[C@H]([C@H](O)C(O)CO)OC(C(=O)O)=C[C@@H]1n1nncc1-c1ccccc1 (stereo partly drawn) [IE1172-45, Sodium 5-acetamido-2,6-anhydro-3,4,5-trideoxy-4-(5-phenyl-[1,2,3,]triazol-1-yl)-D-glycero-D-galacto-non-2-enonate] | > 1000 µM | 315 µM | – | – |
| CC(C)C(=O)N[C@H]1[C@H]([C@H](O)[C@H](O)CO)OC(C(=O)O)=C[C@@H]1n1cc2ccccc2c1C#N [IE889-99, Sodium 2,6-anhydro-4-(1-cyano-2H-isoindol-2-yl)-3,4,5-trideoxy-5-isobutyramido-D-glycero-D-galacto-non-2-enonate] | 6.22 µM | 0.599 µM | – | – |
| CC(=O)N[C@H]1[C@H]([C@H](O)C(O)CO)OC(C(=O)O)=C[C@@H]1n1cc(-c2ccccc2C)nn1 (stereo partly drawn) [IE1172-82, Sodium 5-acetamido-2,6-anhydro-3,4,5-trideoxy-4-(4-(2-methylphenyl)-[1,2,3,]triazol-1-yl)-D-glycero-D-galacto-non-2-enonate] | 57.2 µM | 3.95 µM | – | – |
